Experimental data taken from ChEMBL document CHEMBL1909046, “DrugMatrix in vitro pharmacology data”.

Assays:
[1] = DRUGMATRIX: Glutamate, AMPA radioligand binding (ligand: [3H] AMPA); assay type: cell membranes, Rattus norvegicus, Wistar, Cerebral cortex, Membrane; details: Not Active = under 50% inhibition at 10 µM
[2] = molecular target: T1, Alpha-1A adrenergic receptor (Rattus norvegicus, UniProt P43140); assay: DRUGMATRIX: Alpha-1A adrenergic receptor radioligand binding (ligand: prazosin); assay type: cell membranes, Wistar, Submaxillary gland, Membrane; details: Not Active = under 50% inhibition at 10 µM
T1 sequence (P43140 whole entry): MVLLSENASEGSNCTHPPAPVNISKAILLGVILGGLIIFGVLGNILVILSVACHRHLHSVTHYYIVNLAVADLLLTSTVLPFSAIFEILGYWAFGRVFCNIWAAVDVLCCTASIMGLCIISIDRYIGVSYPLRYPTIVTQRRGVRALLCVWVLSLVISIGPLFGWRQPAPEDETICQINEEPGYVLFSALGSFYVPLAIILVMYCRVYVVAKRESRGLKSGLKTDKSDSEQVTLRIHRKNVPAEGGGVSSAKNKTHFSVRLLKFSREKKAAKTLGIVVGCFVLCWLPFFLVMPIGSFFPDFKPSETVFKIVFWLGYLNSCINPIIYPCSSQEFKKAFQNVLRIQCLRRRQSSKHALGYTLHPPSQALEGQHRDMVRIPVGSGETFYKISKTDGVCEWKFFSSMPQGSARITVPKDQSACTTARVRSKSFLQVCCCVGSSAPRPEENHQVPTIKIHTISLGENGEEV

[3] = molecular target: Epidermal growth factor receptor (Homo sapiens, UniProt P00533); assay: DRUGMATRIX: Protein Tyrosine Kinase, EGF Receptor enzyme inhibition (substrate: Poly(Glu:Tyr)); assay type: cell-based, Insect cells; details: Not Active = under 50% inhibition at 10 µM
[4] = molecular target: T2, 5-hydroxytryptamine receptor 2C (Homo sapiens, UniProt P28335); assay: DRUGMATRIX: Serotonin (5-Hydroxytryptamine) 5-HT2C radioligand binding (ligand: [3H] Mesulergine); assay type: cell membranes, CHO-K1, Membrane; details: cho-k1; Not Active = under 50% inhibition at 10 µM
T2 sequence (P28335 whole entry): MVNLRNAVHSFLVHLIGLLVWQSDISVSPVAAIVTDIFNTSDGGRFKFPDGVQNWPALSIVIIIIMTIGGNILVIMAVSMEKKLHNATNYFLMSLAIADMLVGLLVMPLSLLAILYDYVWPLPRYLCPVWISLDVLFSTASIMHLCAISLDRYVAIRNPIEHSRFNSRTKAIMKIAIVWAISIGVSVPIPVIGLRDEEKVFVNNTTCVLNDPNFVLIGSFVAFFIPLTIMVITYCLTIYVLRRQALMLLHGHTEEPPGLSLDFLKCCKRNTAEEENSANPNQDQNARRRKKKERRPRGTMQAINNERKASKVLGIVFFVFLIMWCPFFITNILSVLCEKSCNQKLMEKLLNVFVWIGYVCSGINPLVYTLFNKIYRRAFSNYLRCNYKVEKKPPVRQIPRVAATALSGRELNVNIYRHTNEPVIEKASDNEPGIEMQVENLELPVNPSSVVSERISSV

[5] = DRUGMATRIX: ATPase, Na+/K+ enzyme inhibition (substrate: ATP); assay type: tissue-based, Sus scrofa, Heart; details: Not Active = under 50% inhibition at 10 µM
[6] = molecular target: Prostaglandin G/H synthase 1 (Homo sapiens, UniProt P23219); assay: biochemical; assay type: tissue-based, Platelet; details: platelet;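 further: inhibition of COX-1 enzyme activity, with arachidonic acid supplied as substrate; in other assays of this panel Not Active means under 50% inhibition at 10 µM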
Sequence of Prostaglandin G/H synthase 1 (P23219 whole entry): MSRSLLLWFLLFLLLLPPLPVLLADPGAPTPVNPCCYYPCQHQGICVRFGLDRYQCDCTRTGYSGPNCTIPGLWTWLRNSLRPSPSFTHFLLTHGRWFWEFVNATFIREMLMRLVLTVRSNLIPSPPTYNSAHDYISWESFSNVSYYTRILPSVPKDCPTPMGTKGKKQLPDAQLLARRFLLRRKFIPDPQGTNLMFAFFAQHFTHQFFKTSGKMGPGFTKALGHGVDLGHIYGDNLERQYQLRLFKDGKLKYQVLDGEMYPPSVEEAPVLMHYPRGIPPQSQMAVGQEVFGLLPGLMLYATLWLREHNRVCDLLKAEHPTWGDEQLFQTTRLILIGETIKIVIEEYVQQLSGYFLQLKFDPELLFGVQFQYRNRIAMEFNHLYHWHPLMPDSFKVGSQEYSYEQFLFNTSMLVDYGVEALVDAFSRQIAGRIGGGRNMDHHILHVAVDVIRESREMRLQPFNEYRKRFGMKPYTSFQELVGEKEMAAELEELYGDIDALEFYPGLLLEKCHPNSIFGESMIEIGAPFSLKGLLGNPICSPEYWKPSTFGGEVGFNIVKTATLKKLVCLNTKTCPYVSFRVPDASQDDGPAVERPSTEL

Compound | IC50 [1] | Ki [1] | IC50 [2] | IC50 ([3]; insect cells) | IC50 [4] | IC50 [5] | Ki [5] | IC50 [6] | IC50 ([3]; read-out: IC50) [µM] | Ki [2] | Ki ([3]; insect cells) | Ki [4] | Ki [6]
NC[C@H]1O[C@H](O[C@H]2[C@H](O)[C@@H](O[C@H]3O[C@H](CO)[C@@H](O)[C@H](N)[C@H]3O)[C@H](N)C[C@@H]2N)[C@H](N)C[C@@H]1O [TOBRAMYCIN] | Not Active | Not Active | Not Active | Not Active | Not Active | Not Active | Not Active | Not Active |  |  |  |  | 
O=C(O)C(Cl)(Cl)Cl [TRICHLOROACETIC ACID] | Not Active | Not Active | Not Active | Not Active | Not Active | Not Active | Not Active | Not Active |  |  |  |  | 
COc1ccc(CN2CCNCC2)c(OC)c1OC [TRIMETAZIDINE] | Not Active | Not Active | Not Active | Not Active | Not Active | Not Active | Not Active | Not Active |  |  |  |  | 
CC(=O)O[C@H]1C[C@@H]2CC[C@@H]3[C@H](CC[C@@]4(C)[C@H]3C[C@H]([N+]3(C)CCCCC3)[C@@H]4OC(C)=O)[C@@]2(C)C[C@@H]1N1CCCCC1.[Br-] [VECURONIUM BROMIDE] | Not Active | Not Active | Not Active | Not Active | Not Active | Not Active | Not Active | Not Active |  |  |  |  | 
COc1cc(C(=O)NS(=O)(=O)c2ccccc2C)ccc1Cc1cn(C)c2ccc(NC(=O)OC3CCCC3)cc12 [ZAFIRLUKAST] | Not Active | Not Active | Not Active |  | Not Active | Not Active | Not Active | Not Active | 5.75 |  |  |  | 
STANNOUS FLUORIDE | Not Active | Not Active | Not Active | Not Active | Not Active | Not Active | Not Active | Not Active |  | Not Active | Not Active | Not Active | Not Active
THIMEROSAL | Not Active | Not Active | Not Active | Not Active | Not Active | Not Active | Not Active | Not Active |  | Not Active | Not Active | Not Active | Not Active
